The values below are quoted from earlier work in patent EP0147926B1, “Oral anti-cancer compositions” (priority 1983, dated 1985).

SMILES strings stand for the structures.

For one data set, the system named is ADJ/PC6A plasmacytoma. The conditions noted are these: administered orally.
Data set [1] has as its system P388 lymphocytic leukaemia. The note with it: administered orally.

Consider `N.N.O=C([O-])C1(C(=O)[O-])CCC1.[Pt+2]` [cis-[diammine-(1,1-cyclobutanedicarboxylato)platinum(II)l], for which the activity result (in the data set with ADJ/PC6A plasmacytoma; in data set [1]) was “insignificant activity” each time.
